Assay results published in patent US20240316045A1, “CYCLOPROPYLAMIDE COMPOUNDS AGAINST PARASITES IN FISH” (Intervet Inc., priority 2021, published 2024).
Like-named read-outs stand apart in the source and are kept apart here.

What was measured:
[1] = system: Copepodids (juvenile sea lice stage of Lepeophtheirus salmonis); test: Juvenile sea lice contact assay; details: read-out: Sea lice inhibition (% of dead+damaged copepodids)
Experimental: Copepodids (juvenile sea lice stage of Lepeophtheirus salmonis) were exposed to seawater spiked with declining concentrations of a test compound (dissolved in a DMSO sea-water mixture). Sea lice inhibition (% of dead+damaged copepodids) was assessed after approximately 24 hours of continuous exposure. The vitality of used parasites was confirmed in a negative (solvent) control group.

[2] = system: Mobile stages of sea lice (pre-adults, adults of Lepeophtheirus salmonis); test: Adult sea lice contact assay; details: read-out: EC50 (sea lice inhibition, dead+damaged)
Experimental: Mobile stages of sea lice (i.e., pre-adults, adults of Lepeophtheirus salmonis) were exposed to seawater spiked with declining concentrations of a test compound (dissolved in a PEG sea-water mixture). Sea lice inhibition (% of dead+damaged sea lice) was assessed after approximately 1 and 24 hours of continuous exposure in comparison to a negative (solvent) control group.

[3] = system: Lepeophtheirus salmonis; test: Salmon in vivo efficacy trial against sea lice, gavage administration; details: in Salmo salar
Experimental: Salmon (Salmo salar) were treated once orally by gavage at a dose of 5 mg/kg bodyweight per fish (Day 0). As formulation DMSO 5%/fish oil 95% was used. Salmon of the negative control group received only the excipients of the formulation.
The fish were infested with Lepeophtheirus salmonis copepodids twice before treatment (i.e., around day −28 and day −3) and once after treatment (i.e., day 17). […]
Efficacy is expressed as a % reduction of sea lice in treated groups versus a control group, using the Abbott's formula.

[4] = test concentration 10 nM, approx. 24 hours continuous exposure
[5] = pre-adult/adult L. salmonis, assessed after approx. 1 and 24 hours, time of EC50 not stated
[6] = test concentration 100 nM, approx. 24 hours continuous exposure
[7] = 168 h, read-out: therapeutic efficacy against (pre-)adult sea lice (% reduction vs control, Abbott), single oral gavage 5 mg/kg, count at day 7, day -28 infestation
[8] = 672 h, read-out: therapeutic efficacy against juvenile sea lice (% reduction vs control, Abbott), single oral gavage 5 mg/kg, count around day 28, day -3 infestation

SMILES	inhibition at 0.01 µM [1, 4]	EC50 [2, 5]	inhibition in vivo at 5 mg/kg [3, 7]	inhibition in vivo at 5 mg/kg [3, 8]	other results
O=C(Nc1ccc(F)cc1)c1cc(NC(=O)C2C(c3cc(Cl)cc(Cl)c3)C2(Cl)Cl)ccc1F (stereo not shown) [Compound 1003]	–	–	–	–	inhibition at 0.1 µM ([1]; 24 h): ≥ 80%; EC50 [2]: 1 to 25 nM
O=C(Nc1c(F)cccc1F)c1cc(NC(=O)C2C(c3cc(Cl)cc(Cl)c3)C2(Cl)Cl)ccc1Cl (stereo not shown) [Compound 1007]	80%	1 to 25 nM	–	–	–
O=C(Nc1ccncn1)c1cc(NC(=O)[C@H]2[C@H](c3cc(Cl)cc(Cl)c3)C2(Cl)Cl)ccc1Cl [Compound 1039]	–	1 to 25 nM	80%	80%	inhibition at 0.1 µM [1, 6]: 100%
O=C(Nc1ccc(F)cc1F)c1cc(NC(=O)[C@H]2[C@H](c3ccc(F)c(Cl)c3)C2(Cl)Cl)ccc1Cl [Compound 1087]	–	–	–	–	inhibition at 0.001 µM ([1]; 24 h): 100%; EC50 [2]: 1 to 25 nM
O=C(Nc1ccc(F)cc1)c1cc(NC(=O)[C@H]2[C@H](c3cc(Cl)cc(Cl)c3)C2(Cl)Cl)ccc1F [Compound 1090]	–	–	–	–	inhibition at 0.001 µM ([1]; 24 h): 100%; EC50 [2]: 1 to 10 nM
O=C(Nc1ccc(F)cc1F)c1cc(NC(=O)[C@H]2[C@H](c3cc(F)c(F)c(F)c3)C2(Cl)Cl)ccc1Cl [Compound 1094]	–	1 to 10 nM	–	–	–
O=C(Nc1ncc(F)cc1F)c1cc(NC(=O)[C@H]2[C@H](c3cc(Cl)cc(Cl)c3)C2(Cl)Cl)ccc1Cl [Compound 1097]	–	1 to 10 nM	–	–	–
Cc1cc(NC(=O)c2cc(NC(=O)[C@H]3[C@H](c4cc(Cl)cc(Cl)c4)C3(Cl)Cl)ccc2Cl)ncc1F [Compound 1098]	–	1 to 10 nM	–	–	–
O=C(Nc1ccccc1)c1cc(NC(=O)[C@H]2[C@H](c3cc(Cl)cc(Cl)c3)C2(Cl)Cl)ccc1Cl [Compound 1099]	100%	1 to 10 nM	80%	100%	–
Cc1ccccc1NC(=O)c1cc(NC(=O)[C@H]2[C@H](c3cc(Cl)cc(Cl)c3)C2(Cl)Cl)ccc1Cl [Compound 1100]	100%	1 to 10 nM	100%	100%	–
Cc1ccc(NC(=O)[C@H]2[C@H](c3cc(Cl)cc(Cl)c3)C2(Cl)Cl)cc1C(=O)Nc1ccc(F)cc1 [Compound 1101]	–	1 to 10 nM	–	–	inhibition at 0.1 µM [1, 6]: 100%
O=C(Nc1cnc(F)cc1F)c1cc(NC(=O)[C@H]2[C@H](c3cc(Cl)cc(Cl)c3)C2(Cl)Cl)ccc1Cl [Compound 1366]	–	1 to 10 nM	–	–	–
O=C(Nc1c(F)ccnc1F)c1cc(NC(=O)[C@H]2[C@H](c3cc(Cl)cc(Cl)c3)C2(Cl)Cl)ccc1Cl [Compound 1367]	–	1 to 10 nM	–	–	–
Cc1c(F)cc(NC(=O)[C@H]2[C@H](c3cc(Cl)cc(Cl)c3)C2(Cl)Cl)cc1C(=O)Nc1ncc(F)cc1F [Compound 1368]	100%	1 to 10 nM	80%	100%	–
O=C(Nc1c(F)cccc1F)c1cc(NC(=O)[C@H]2[C@H](c3cc(Cl)cc(Cl)c3)C2(Cl)Cl)ccc1Cl [Compound 1370]	100%	1 to 10 nM	100%	100%	–
O=C(Nc1cncnc1)c1cc(NC(=O)[C@H]2[C@H](c3cc(Cl)cc(Cl)c3)C2(Cl)Cl)ccc1Cl [Compound 1371]	100%	1 to 10 nM	100%	100%	–
O=C(Nc1ncc(F)cn1)c1cc(NC(=O)[C@H]2[C@H](c3cc(Cl)cc(Cl)c3)C2(Cl)Cl)ccc1Cl [Compound 1372]	–	1 to 10 nM	–	–	–
O=C(Nc1ncc(F)cc1F)c1cc(NC(=O)[C@H]2[C@H](c3cc(Cl)cc(Cl)c3)C2(Cl)Cl)ccc1F [Compound 1376]	–	≤ 1 nM	100%	100%	inhibition at 10 pM ([1]; test concentration 0.01 nM, approx. 24 hours continuous exposure): 100%; inhibition at 0.0001 µM ([1]; test concentration 0.1 nM, approx. 24 hours continuous exposure): 100%
O=C(Nc1ncc(F)cc1F)c1cc(NC(=O)[C@H]2[C@H](c3cc(Cl)cc(Cl)c3)C2(Cl)Cl)cc(F)c1Cl [Compound 1378]	100%	1 to 25 nM	100%	100%	–
O=C(Nc1ncc(F)cc1F)c1cccc(NC(=O)[C@H]2[C@H](c3cc(Cl)cc(Cl)c3)C2(Cl)Cl)c1F [Compound 1379]	–	1 to 25 nM	–	–	inhibition at 0.1 µM [1, 6]: 100%
O=C(Nc1cnc(F)cc1F)c1cc(NC(=O)[C@H]2[C@H](c3cc(Cl)c(Cl)c(Cl)c3)C2(Cl)Cl)ccc1Cl [Compound 1380]	–	1 to 10 nM	–	–	–
O=C(Nc1ncc(F)cc1F)c1cc(NC(=O)C2C(c3cc(Cl)c(F)c(Cl)c3)C2(Cl)Cl)ccc1Cl (stereo not shown) [Compound 1383]	100%	1 to 10 nM	–	–	–
O=C(Nc1ncc(F)cc1F)c1cc(NC(=O)C2C(c3cc(C(F)(F)F)cc(C(F)(F)F)c3)C2(Cl)Cl)ccc1Cl (stereo not shown) [Compound 1385]	100%	1 to 10 nM	–	–	–
O=C(Nc1ccc(F)cc1F)c1cc(NC(=O)C2C(c3cc(C(F)(F)F)cc(C(F)(F)F)c3)C2(Cl)Cl)ccc1F (stereo not shown) [Compound 1387]	–	1 to 10 nM	–	–	inhibition at 0.1 µM [1, 6]: 100%
O=C(Nc1ncc(F)cc1F)c1cc(NC(=O)C2C(c3cc(C(F)(F)F)cc(C(F)(F)F)c3)C2(Cl)Cl)cc(F)c1F (stereo not shown) [Compound 1388]	–	1 to 10 nM	–	–	inhibition at 0.1 µM [1, 6]: 100%
O=C(Nc1ncc(F)cc1F)c1cc(NC(=O)C2C(c3cc(Cl)cc(C(F)(F)F)c3)C2(Cl)Cl)ccc1Cl (stereo not shown) [Compound 1389]	100%	≤ 1 nM	–	–	–
O=C(Nc1ncc(F)cc1F)c1cc(NC(=O)C2C(c3cc(Cl)cc(Cl)c3)C2(Cl)Cl)cc(F)c1F (stereo not shown) [Compound 1391]	80%	1 to 10 nM	–	–	–
O=C(Nc1ncc(F)cc1F)c1cc(NC(=O)[C@H]2[C@H](c3cc(F)c(F)c(F)c3)C2(Cl)Cl)ccc1Cl [Compound 1392]	–	–	–	–	inhibition at 0.01 µM ([1]; 24 h): 100%; inhibition in vivo at 5 mg/kg ([3]; po, 168 h, read-out: therapeutic efficacy against (pre-)adult sea lice (% reduction vs control, Abbott)): 100%; inhibition in vivo at 5 mg/kg ([3]; po, 672 h, read-out: therapeutic efficacy against juvenile sea lice (% reduction vs control, Abbott)): 80%; EC50 [2]: ≤ 1 nM
O=C(Nc1ncc(F)cc1F)c1cc(NC(=O)[C@H]2[C@H](c3cc(F)c(F)c(F)c3)C2(Cl)Cl)ccc1F [Compound 1393]	100%	≤ 1 nM	100%	80%	–
O=C(Nc1ncc(F)cc1F)c1c(F)ccc(NC(=O)[C@H]2[C@H](c3cc(Cl)cc(Cl)c3)C2(Cl)Cl)c1F [Compound 1394]	–	1 to 10 nM	100%	100%	inhibition at 0.1 µM [1, 6]: 100%
